Patent publication US20180346731A1, “Formation of Stable Pyranoanthocyanins, and Uses Thereof as Sources of Natural Color” (Ohio State Innovation Foundation, priority 2017, published 2018)
Where “and” joins values, the source holds several entries; their conditions need not be identical. Identical values can stand only once. One block for each compound: values may come before it.

Experiments:
[1] = reported in literature; cited from earlier work
[2] = Direct hydrogen peroxide addition to pigment solutions (HPLC, absorbance); assay type: physicochemical
Method: (§1) The semi-purified chokeberry extract, the isolated cyanidin-3-galactoside, and the purified 5-carboxypyranocyanidin-3-galactoside were diluted in pH 3.0 citrate buffer (0.1 M adjusted with HCl) until an absorbance of 1.0 at their respective λmax was reached. Levels of AA of 250, 500, and 1000 mg/L were added using a concentrated ascorbic acid stock solution, and a control consisting of each pigment with the absence of AA was maintained. The control consisted of the pigment in the buffer in the absence of AA. An additional test was performed with the same model juice using hydrogen peroxide, a known degradation product of AA. To determine if AA bleaching was due to formation of H2O2, direct addition of it was investigated. In place of added AA, a 62.2 μL of a 0.3% peroxide solution was added to match the molar equivalency of the 500 mg/L AA level, which was 2.84 mM.
All samples were brought to the same final volume with additional citrate buffer. […] Samples were stored in the dark at 25° C. in an incubator. UV-Vis spectrophotometry, colorimetry, and HPLC analyses were conducted over a 5 day period following the addition of ascorbic acid or hydrogen peroxide. […]
Auto-oxidation of AA in solution can give rise to H2O2 formation, a powerful bleaching agent that can further lead to rapid ACN degradation. […] HPLC profiles as well as maximum absorbance and λmax of the solutions were evaluated.

[3] = UV-Vis absorbance loss and first-order bleaching kinetics of pigment solutions with ascorbic acid (pH 3.0 citrate buffer, 25° C., dark); assay type: physicochemical; details: for K (reaction rate, first-order) / t1/2: 25° C. dark
Method: The semi-purified chokeberry extract, the isolated cyanidin-3-galactoside, and the purified 5-carboxypyranocyanidin-3-galactoside were diluted in pH 3.0 citrate buffer (0.1 M adjusted with HCl) until an absorbance of 1.0 at their respective λmax was reached. Levels of AA of 250, 500, and 1000 mg/L were added using a concentrated ascorbic acid stock solution, and a control consisting of each pigment with the absence of AA was maintained. The control consisted of the pigment in the buffer in the absence of AA. An additional test was performed with the same model juice using hydrogen peroxide, a known degradation product of AA. To determine if AA bleaching was due to formation of H2O2, direct addition of it was investigated. In place of added AA, a 62.2 μL of a 0.3% peroxide solution was added to match the molar equivalency of the 500 mg/L AA level, which was 2.84 mM. All samples were brought to the same final volume with additional citrate buffer. […] Samples were stored in the dark at 25° C. in an incubator. UV-Vis spectrophotometry, colorimetry, and HPLC analyses were conducted over a 5 day period following the addition of ascorbic acid or hydrogen peroxide. UV-Vis spectral data was collected every hour for the first 8 hours, and then at 12 hr, and daily from that point on for 5 days. […] HPLC analyses were conducted on days 0, 1, 3, and 5. All treatments were run in triplicate. A SpectraMax 190 Microplate Reader (Molecular Devices, Sunnyvale, Calif., U.S.) with a 96-well plate (poly-D-lysine coated polystyrene) were used for the evaluation of absorbance from 380-700 nm, 1 nm intervals. Aliquots (200 uL) of samples were loaded into individual wells, and a blank consisted of the same citrate buffer used. Because of the rapid nature of AA-induced color loss, degradation kinetics were evaluated in terms of change in maximum absorbance at the original λmax over time. Bleaching is a first-order reaction, typical of ACN degradation, and was modeled as such in determining the reaction rate and half-life. The decrease in maximum absorbance correlated with an increase in lightness (L*) as well as the decrease in chroma (c*). The reduction in maximum absorbance did closely follow first-order kinetics for chokeberry extract and cyanidin-3-galactoside but slightly deviated for 5-carboxypyranocyanidin-3-galactoside. […] The kinetics results for each pigment and AA level can be found in Table 3 below.

[4] = HPLC monitoring of pigment peaks with ascorbic acid; assay type: physicochemical
Method: Prior to experimentation, pigments were evaluated for purity by using an analytical HPLC only different from the previously listed one by the use of different pumps (LC-20AD, Shimadzu, Md., US). Purified pigments were filtered using the Phenex RC 0.45 μm membranes. A binary system with 1 mL/min flow rate was used: solvent A: 4.5% formic acid in HPLC grade water and solvent B: HPLC grade acetonitrile. The gradient began with an isocratic flow of 6% solvent B for 17 minutes (elution of primary anthocyanins), increasing to 15% solvent B by 45 minutes (elution of primary pyranoanthocyanins), and to 40% solvent B by 50 minutes. A 10 μL injection volume was loaded onto a Phenomenex Kinetix 5 μm EVO C18 100 A. 150×4.6 mm column and Phenomenex Ultra UHPLC EVO C18 guard cartridge attached.
as §1
(§2) All samples were brought to the same final volume with additional citrate buffer. […] Samples were stored in the dark at 25° C. in an incubator. UV-Vis spectrophotometry, colorimetry, and HPLC analyses were conducted over a 5 day period following the addition of ascorbic acid or hydrogen peroxide. UV-Vis spectral data was collected every hour for the first 8 hours, and then at 12 hr, and daily from that point on for 5 days. […] HPLC analyses were conducted on days 0, 1, 3, and 5. All treatments were run in triplicate.
Prepared solutions were monitored to determine the formation of potential degradation products or profile changes. Using the analytical HPLC system and conditions described, chromatograms were monitored with the max plot (260-700 nm), 490 nm (near λmax of 5-carboxypyranocyanidin-3-galactoside), and 520 nm (near ma of cyanidin-3-galactoside). A max plot of 470-520 nm was later added to standardize changes in the AUC for all three pigments and their degradation products.

[5] = Colorimetry (CIEL*c*h*, ΔE) of pigment solutions with ascorbic acid; assay type: physicochemical
Method: as §1, §2
Using UV-Vis spectral data (5 nm steps, 380-700 nm) in combination with software written for color conversion, absorbance data was translated to CIE-L*c*h*. The calculations for CIE-L*c*h* implemented by the software used CIE relative spectral power distribution for a D65 standard illuminants and 10° observer angle function. Color data is reported as L* (lightness), c* (chroma), and h* (hue angle).
Total color changes (ΔE) were calculated as the color change from day 0 to 5 for each respective treatment, and presented in Table 4.
Numbers are means of 3 replications, followed by (standard deviations). ΔE: total color change from day 0 (control) to day 5.

Compound: OC[C@H]1O[C@@H](Oc2cc3c(O[C@@H]4O[C@H](CO)[C@@H](O)[C@H](O)[C@H]4O)cc(O)cc3[o+]c2-c2ccc(O)c(O)c2)[C@H](O)[C@@H](O)[C@@H]1O [Cy-3-glu-5-glu]
- pKh [1]: 2.23

- K (reaction rate, first-order) ([3]; 250 mg/L AA): 2.69E−03
- t1/2 ([3]; 250 mg/L AA): 258 h
- reduction in maximum absorbance ([3]; 500 mg/L AA, 5 day period): 38%
- λmax after hypsochromic change ([3]; 500 mg/L AA, after treatment): 484 nm
- λmax before hypsochromic change ([3]; 500 mg/L AA, start): 491 nm
- K (reaction rate, first-order) ([3]; 500 mg/L AA): 4.61E−03
- t1/2 ([3]; 500 mg/L AA): 150 h
- K (reaction rate, first-order) ([3]; 1000 mg/L AA): 1.08E−02
- t1/2 ([3]; 1000 mg/L AA): 64 h
- K (reaction rate, first-order) ([3]; Control, no AA, absorbance at λvis-max): 7.08E−04
- time before a significant difference (p<0.05) in maximum absorbance from time 0 ([3]; all levels of AA added): 24 h
- hypsochromic shift of λmax ([3]; over the 5 days of AA treatment, regardless of AA level): ≤ 10 nm
- target peaks left after 1 day ([4]; 1000 mg/L AA, HPLC): 10%
- reduction of pigment peak by day 1 ([4]; 1 g/L AA, HPLC AUC): 93%
- reduction of pigment peak by day 5 ([4]; 1 g/L AA, HPLC AUC): 99%
- Chroma Day 0 ([5]; 250 mg/L AA): 55.2 (0.4)
- Chroma Day 5 ([5]; 250 mg/L AA): 43.2 (0.2)
- Hue Angle Day 0 ([5]; 250 mg/L AA): 50.7 (0.2) °
- Hue Angle Day 5 ([5]; 250 mg/L AA): 46.9 (.3) °
- Lightness Day 0 ([5]; 250 mg/L AA): 81.9 (0.1)
- Lightness Day 5 ([5]; 250 mg/L AA): 82.8 (0.3)
- ΔE Over 5 days ([5]; 250 mg/L AA): 4.5 (0.2)
- Chroma Day 0 ([5]; 500 mg/L AA): 54.7 (0.3)
- Chroma Day 5 ([5]; 500 mg/L AA): 39.2 (0.3)
- Hue Angle Day 0 ([5]; 500 mg/L AA): 50.4 (0.1) °
- Hue Angle Day 5 ([5]; 500 mg/L AA): 48.3 (0.4) °
- Lightness Day 0 ([5]; 500 mg/L AA): 82.1(0.3)
- Lightness Day 5 ([5]; 500 mg/L AA): 83.6 (0.4)
- ΔE Over 5 days ([5]; 500 mg/L AA): 5.0 (0.2)
- Chroma Day 5 ([5]; 1000 mg/L AA): 36.2 (0.3)
- Hue Angle Day 0 ([5]; 1000 mg/L AA): 51.0 ° and 51.0 (0.1) °
- Hue Angle Day 5 ([5]; 1000 mg/L AA): 57.1 ° and 57.1 (0.7) °
- Lightness Day 5 ([5]; 1000 mg/L AA): 83.7 (0.2)
- ΔE Over 5 days ([5]; 1000 mg/L AA): 5.2 (0.5)
- L* after 48 hours ([5]; 1000 mg/L AA, 48 hours): 86.6
- ΔE Over 5 days ([5]; 1000 mg/L AA, listed as 5-Carboxypyranocyanidin-3-galactoside): 5.2
- Chroma Day 0 ([5]; Control, no AA): 54.3 (0.7)
- Chroma Day 5 ([5]; Control, no AA): 49.9 (1.3)
- Hue Angle Day 0 ([5]; Control, no AA): 50.0 (0.2) °
- Hue Angle Day 5 ([5]; Control, no AA): 47.5 (0.6) °
- Lightness Day 5 ([5]; Control, no AA): 82.2 (0.6)
- ΔE Over 5 days ([5]; Control, no AA): 2.1 (0.4)
- Lightness Day 0 ([5]; Control, no AA, mean (SD), n=3): 82.2 (0.2)
- time until significant change in chroma as compared to the control ([5]; all levels of AA): 48 h
- initial hue angle ([5]; day 0): 50 °
Compound: O=C(O)C1=Cc2c(O[C@@H]3O[C@H](CO)[C@H](O)[C@H](O)[C@H]3O)c(-c3ccc(O)c(O)c3)[o+]c3cc(O)cc(c23)O1 [5-carboxypyranocyanidin-3-galactoside]
- resistance to bleaching with H2O2 [2]: more resistant to bleaching compared to anthocyanins
